Drawing on PubChem BioAssay (NCI), this text covers GI50 and TGI for one compound.

Some test systems named below: HCC-2998 colon; HL-60(TB) leukemia; HT29 colon; MDA-MB-435; NCI-H522 lung; NCI/ADR-RES ovarian; SK-OV-3 ovarian; SN12C renal; SNB-75 CNS; TK-10 renal.
Assay in all cases: NCI-60 cell line screen, 48 h

Structures are written as SMILES.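 Following 48 hours of exposure in 96-well plates, responses at five concentrations were used to interpolate endpoints linearly. At the GI50, growth is halved. The concentration for full growth arrest is given as TGI.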 Some results are limits rather than exact numbers.

Take `CN1CCN(Cn2nc(-c3cc(F)c(Cl)cc3Cl)oc2=S)CC1`: the GI50 in the test on HCC-2998 colon was 55.9 µM; in the test on HL-60(TB) leukemia, 78.5 µM; in the test on HT29 colon, 24.5 µM; with MDA-MB-435, 40.5 µM; with NCI-H522 lung, 90.1 µM; in the test with NCI/ADR-RES ovarian, 83.6 µM. Besides, the GI50 is 56.9 µM with SK-OV-3 ovarian, 28.3 µM in the test on SN12C renal, 53.3 µM in the test with SNB-75 CNS and 39.3 µM in the test with TK-10 renal. In addition, the TGI was over 100 µM with HCC-2998 colon; over 100 µM in the test with HL-60(TB) leukemia; 54.7 µM in the test on HT29 colon; over 100 µM with MDA-MB-435; over 100 µM in the test on NCI-H522 lung; over 100 µM in the test with NCI/ADR-RES ovarian. The TGI with SK-OV-3 ovarian, in the test on SN12C renal, in the test on SNB-75 CNS and in the test on TK-10 renal was over 100 µM throughout.
